Article PMC5267425, “Identification of small molecule modulators of HIV-1 Tat and Rev protein accumulation” (Retrovirology, 2017)

System: cellular gene expression in HeLa rtTA HIV∆Mls cells

Cc1cc(NCc2cccnc2)n2ncc(-c3ccc(Cl)cc3)c2n1 [Compound 791, 3-(4-chlorophenyl)-5-methyl-N-(3-pyridinylmethyl)pyrazolo[1,5-a]pyrimidin-7-amine]
AARS Mean fold change: 2.833 | ABCC3 Mean fold change: 2.692 | ABCG1 Mean fold change: 3.311 | ABHD6 Mean fold change: 1.566 | AC004490.2 Mean fold change: 2.204 | AC006486.1 expression fold change: 0.690 | AC008763.1 expression fold change: 0.679 | AC009133.2 Mean fold change: 1.588 | AC010442.1 Mean fold change: 1.579 | AC013356.3 expression fold change: 1.345 | AC037487.1 expression fold change: 1.347 | AC068020.2 Mean fold change: 2.561 | AC092295.7 expression fold change: 0.786 | AC135352.1 Mean fold change: 1.465 | AC138904.2 Mean fold change: 2.431 | ACADVL Mean fold change: 1.427 | ACAP3 expression fold change: 0.896 | ACER2 expression fold change: 1.385 | ACN9 expression fold change: 1.202 | ACOT9 expression fold change: 0.729 | ACTN1 expression fold change: 0.801 | ADD1 expression fold change: 0.880 | ADI1 expression fold change: 0.759 | ADO expression fold change: 1.398 | AGPAT2 expression fold change: 0.738 | AGPAT9 Mean fold change: 1.761 | AGXT2L2 Mean fold change: 1.839 | AHCTF1 expression fold change: 1.155 | AIDA expression fold change: 1.199 | AIFM1 expression fold change: 1.118 | AKIRIN2 expression fold change: 1.270 | ALDH2 Mean fold change: 1.928 | ALDOC expression fold change: 0.728 | ALG5 expression fold change: 1.288 | ALKBH8 expression fold change: 1.320 | ALX1 expression fold change: 1.051 | ANKHD1 expression fold change: 1.136 | ANKRD40 expression fold change: 1.260 | ANKRD50 expression fold change: 1.377 | ANKS1A expression fold change: 0.869 | ANXA5 expression fold change: 0.844 | ANXA6 expression fold change: 0.632 | AP2M1 expression fold change: 0.841 | AP3S2 expression fold change: 1.386 | AP000926.1 Mean fold change: 1.726 | APBA3 expression fold change: 1.129 | APOBEC3B expression fold change: 0.520 | ARF1 expression fold change: 0.787 | ARF3 expression fold change: 0.882 | ARG2 Mean fold change: 3.609 | ARHGAP11A expression fold change: 0.778 | ARHGAP26 Mean fold change: 1.819 | ARHGEF2 Mean fold change: 2.222 | ARHGEF4 Mean fold change: 1.690 | ARL4D expression fold change: 1.406 | ARL17B Mean fold change: 1.427 | ARMC10 expression fold change: 1.383 | ARNTL Mean fold change: 1.815 | ARPC5 expression fold change: 0.694 | ARSJ expression fold change: 1.309 | ASB7 expression fold change: 1.181 | ASB8 expression fold change: 1.184 | ASCC1 expression fold change: 1.134 | ASNS Mean fold change: 5.898 | ASNSD1 expression fold change: 1.208 | ATF4 Mean fold change: 1.683 | ATG4B expression fold change: 1.240 | ATG12 expression fold change: 1.178 | ATG16L1 expression fold change: 1.132 | ATIC expression fold change: 1.115 | ATP2B1 Mean fold change: 1.479 | ATP5H expression fold change: 1.145 | ATP6AP1L Mean fold change: 1.979 | ATP6V0A1 expression fold change: 0.795 | ATP6V1B2 expression fold change: 1.261 | ATP8B1 expression fold change: 0.527 | ATXN7L2 expression fold change: 1.076 | AUP1 expression fold change: 1.231 | AVL9 expression fold change: 1.338 | AXIN1 expression fold change: 1.266 | B3GNT1 expression fold change: 0.674 | B3GNT5 Mean fold change: 2.008 | B4GALT5 expression fold change: 1.380 | BAT3 expression fold change: 0.841 | BAZ1B expression fold change: 1.159 | BCAR1 expression fold change: 0.869 | BCAR3 Mean fold change: 1.528 | BCL7A expression fold change: 1.302 | BCOR expression fold change: 0.835 | BCORL1 expression fold change: 0.826 | BEST1 Mean fold change: 1.710 | BHLHB9 expression fold change: 0.836 | BICD1 expression fold change: 1.280 | BIVM expression fold change: 1.241 | BMP2K expression fold change: 1.246 | BMPR1B expression fold change: 0.758 | BRWD2 expression fold change: 1.126 | BST2 expression fold change: 0.606 | BTRC expression fold change: 1.086 | BUD13 expression fold change: 1.160 | C1D expression fold change: 0.907 | C1orf27 expression fold change: 1.263 | C1orf43 Mean fold change: 1.578 | C1orf103 expression fold change: 1.312 | C1orf109 expression fold change: 1.133 | C1orf115 expression fold change: 0.712 | C1orf131 expression fold change: 1.232 | C2orf18 Mean fold change: 2.057 | C2orf44 expression fold change: 1.212 | C2orf49 expression fold change: 1.330 | C2orf60 Mean fold change: 1.552 | C3orf19 expression fold change: 1.302 | C3orf59 expression fold change: 0.622 | C4orf23 expression fold change: 1.124 | C4orf27 expression fold change: 1.269 | C4orf32 Mean fold change: 1.456 | C4orf43 expression fold change: 1.083 | C5orf13 expression fold change: 0.675 | C5orf15 expression fold change: 0.799 | C5orf30 expression fold change: 1.191 | C5orf37 expression fold change: 1.270 | C5orf45 expression fold change: 1.325 | C5orf51 expression fold change: 1.347 | C6orf48 Mean fold change: 2.042 | C6orf145 expression fold change: 0.730 | C7orf23 expression fold change: 1.243 | C7orf25 expression fold change: 1.354 | C7orf27 expression fold change: 0.879 | C7orf42 expression fold change: 0.864 | C7orf44 expression fold change: 1.193 | C9orf3 expression fold change: 0.575 | C9orf6 expression fold change: 1.317 | C9orf46 expression fold change: 1.230 | C9orf114 expression fold change: 1.133 | C9orf163 expression fold change: 0.820 | C10orf76 expression fold change: 0.797 | C10orf114 expression fold change: 0.622 | C11orf17 Mean fold change: 1.495 | C11orf57 expression fold change: 1.379 | C11orf73 expression fold change: 1.274 | C12orf35 expression fold change: 1.357 | C12orf41 Mean fold change: 1.427 | C12orf65 expression fold change: 1.231 | C12orf73 expression fold change: 1.310 | C13orf23 expression fold change: 1.356 | C14orf79 Mean fold change: 1.679 | C14orf104 expression fold change: 1.167 | C14orf147 expression fold change: 0.683 | C14orf167 Mean fold change: 1.721 | C15orf61 expression fold change: 1.088 | C16orf63 expression fold change: 1.203 | C16orf72 expression fold change: 1.363 | C17orf75 expression fold change: 1.209 | C17orf80 expression fold change: 1.234 | C18orf19 expression fold change: 1.208 | C18orf25 expression fold change: 1.336 | C18orf45 expression fold change: 1.218 | C19orf28 expression fold change: 0.696 | C19orf55 expression fold change: 1.216 | C19orf57 Mean fold change: 2.062 | C20orf29 expression fold change: 0.759 | C20orf177 expression fold change: 1.123 | C22orf23 Mean fold change: 1.568 | CA5B Mean fold change: 1.804 | CALD1 expression fold change: 0.520 | CAP2 expression fold change: 0.518 | CAPN1 expression fold change: 0.764 | CARS Mean fold change: 2.332 | CASC5 expression fold change: 0.767 | CASP8 expression fold change: 1.182 | CAT Mean fold change: 1.598 | CAV2 expression fold change: 0.581 | CC2D2A expression fold change: 0.869 | CCBL2 expression fold change: 1.248 | CCDC22 expression fold change: 1.134 | CCDC25 expression fold change: 1.260 | CCDC40 Mean fold change: 1.891 | CCDC41 expression fold change: 1.182 | CCDC55 expression fold change: 1.136 | CCDC85C expression fold change: 0.665 | CCDC91 Mean fold change: 1.516 | CCDC92 expression fold change: 1.319 | CCDC99 expression fold change: 0.607 | CCDC102A expression fold change: 0.591 | CCDC150 expression fold change: 0.840 | CCNB1IP1 Mean fold change: 1.940 | CCNJ expression fold change: 1.250 | CCNT2 expression fold change: 1.170 | CD276 expression fold change: 0.827 | CDADC1 expression fold change: 1.201 | CDC42EP3 expression fold change: 0.641 | CDK1 expression fold change: 0.737 | CDK4 expression fold change: 1.239 | CDK8 expression fold change: 1.082 | CDK17 expression fold change: 1.247 | CDKL1 expression fold change: 0.840 | CDKN2C expression fold change: 0.598 | CEBPG Mean fold change: 3.507 | CEP70 expression fold change: 0.860 | CES2 Mean fold change: 1.537 | CGN expression fold change: 0.519 | CGRRF1 Mean fold change: 1.453 | CHAC1 Mean fold change: 6.989 | CHCHD4 expression fold change: 1.327 | CHN1 expression fold change: 0.798 | CHN2 expression fold change: 1.345 | CLCN2 expression fold change: 1.278 | CLCN5 Mean fold change: 1.584 | CLEC2D Mean fold change: 1.905 | CLIC4 Mean fold change: 1.468 | CLPTM1L expression fold change: 0.747 | CLUAP1 Mean fold change: 1.416 | CNN2 expression fold change: 0.712 | CNNM3 expression fold change: 0.809 | CNOT4 expression fold change: 1.191 | COG1 expression fold change: 1.328 | COG8 expression fold change: 1.183 | COL4A3BP Mean fold change: 1.572 | COMMD1 expression fold change: 0.832 | COMMD4 expression fold change: 0.856 | COPS7B Mean fold change: 1.473 | COX7A2L expression fold change: 1.194 | COX7A2 expression fold change: 0.949 | COX19 expression fold change: 1.369 | CPD Mean fold change: 1.588 | CREB1 expression fold change: 1.234 | CRTC3 expression fold change: 0.714 | CSE1L expression fold change: 0.867 | CSGALNACT2 expression fold change: 1.343 | CSNK1A1 Mean fold change: 1.528 | CSNK2A1 expression fold change: 1.245 | CSRNP2 expression fold change: 1.269 | CSRP2BP Mean fold change: 1.435 | CSRP2 expression fold change: 0.574 | CST3 expression fold change: 1.145 | CTC-241N9.1 Mean fold change: 1.850 | CTD-2526A2.1 Mean fold change: 1.524 | CTH Mean fold change: 2.646 | CTNND1 expression fold change: 0.683 | CTSL1 Mean fold change: 1.489 | CTTNBP2 expression fold change: 0.629 | CUEDC2 expression fold change: 1.278 | CWC25 expression fold change: 1.169 | CXADR expression fold change: 1.102 | CYFIP1 expression fold change: 0.887 | CYP2R1 Mean fold change: 1.818 | CYP2S1 expression fold change: 1.098 | CYTH3 expression fold change: 0.536 | DAB2 expression fold change: 0.623 | DAG1 expression fold change: 0.608 | DAGLB expression fold change: 0.867 | DBF4B expression fold change: 0.760
